Source: patent publication US9856298B2 (priority 2011, dated 2018)
Values after ≈ are worked out from the molar mass of the structure shown. Numbered stars: 1 amine (or outer) side, 2 acyl side, 3 side chain; on linkers, the order of the positions; unused ones are H or OH. Square brackets hold non-standard residues; d marks the D form. Primed or numbered codes have the meaning given here. Side chains are listed from the residue outwards. Ends that are not written are not given here. Peptide text beside a SMILES is read from it. * marks the point of attachment. Orn(α-tetramethylguanidino) = CN(C)C(=N[C@@H](CCCN)C(=O)*)N(C)C; δOrn(α-TMG) = CN(C)C(=N[C@@H](CCCN[*:1])C(=O)[*:2])N(C)C; Guan″ = guanidino group at the N-terminus, N=C(N)*; sPEG750 = PEG of 750 linked via acid group; Orn = NCCC[C@H](N)C(=O)O

Columns and labels:
[1] = test system: Escherichia coli strain BL21AI; test: Minimum inhibitory concentration in 1% TSB; type: cell-based; settings: E. coli BL21AI, 1% TSB, 20 hours at 37° C.
Protocol: (§1) To that end, the peptides were dissolved in water and diluted in a two-fold dilution series with 1% aqueous soybean medium (TSB) in sterile 96-well plates (Greiner Bio-One GmbH) from 128 μg/ml in twelve dilution steps to 62.5 ng/ml. Overnight cultures of Escherichia coli strain BL21AI were adjusted with 1% TSB to about […] colony forming units per ml. In each case 50 μl of peptide solution per well were then mixed with in each case 50 μl of the bacteria solution, in order to achieve a starting concentration of 4×10^5 bacteria per well. After incubation for 20 hours at 37° C., the absorption at 595 nm was determined (microplate reader, TECAN Trading AG).

[2] = Serum stability / release of peptide in 25% aqueous mouse serum (RP-HPLC, MALDI-MS); settings: 25% (v/v) aqueous mouse serum
Protocol: (§2) 30 μl of a 1 mg/ml peptide solution were diluted with 120 μl of water and, after addition of 50 of serum, incubated at 37° C. for 0 hours, 0.5 hour, 1 hour, 2 hours or 4 hours. Alternatively, the peptide derivatives having a starting concentration of 3 mg/ml were diluted with serum to a final concentration of 15 μg/ml. According to the stability of the peptides, the samples were analysed at the times mentioned above or after 0 hours, 4 hours and 6 hours. The serum proteins were precipitated by addition of 50 μl of 15% TCA, and the supernatant was neutralised with 25 μl of 1 mol/l NaOH. The samples were made up to 250 μl with 5% B, 230 μl of the solution were transferred into a HPLC vial, and 220 μl were injected.
(§3) RP-HPLC analysis was carried out with a linear acetonitrile gradient (Biosolve BV, Valkenswaard, Netherlands) in the presence of 0.1% trifluoroacetic acid (TFA, UV grade, Fluka Chemie GmbH, Buchs, Switzerland) as ion-pair reagent. The fractions were co-crystallised with α-cyanohydroxycinnamic acid (Bruker Daltonik GmbH; Bremen, Germany) as matrix (4 mg/ml in 60% acetonitrile in 0.1% aqueous TFA) and analysed with a tandem mass spectrometer (MALDI-TOF/TOF-MS, 4700 Proteomics Analyzer; Applied Biosystems GmbH, Weiterstadt, Germany) in positive-ion reflector mode. The amount of intact peptides and their degradation products or metabolites could thus be identified and quantified at the individual times. 25% aqueous mouse serum, which was analysed in parallel for the same time intervals, was used as control.

[3] = test system: Escherichia coli strain BL21AI; test: Minimum inhibitory concentration in TSB in the presence of 25% mouse serum; type: cell-based; settings: E. coli BL21AI, TSB with 25% mouse serum, 20 hours at 37° C.
Protocol: as §1
In addition, the antibacterial activity was also determined in the presence of 25% mouse serum. To that end, the MIC values were determined as described above, but 25 μl of mouse serum were also added to each well before the incubation (25% final concentration).

[4] = mammalian serum (25%); cited from earlier work
25% aqueous mouse serum = settings: 37° C., up to 6 hours
[5] = mouse
Protocol: as §2, §3

Row | cleaved bond (25% aqueous mouse serum) | Compound | MIC in TSB [1] | half-life at 150 µg/ml [2] | further results
1 |  | CC[C@H](C)[C@H](NC(=O)[C@H](Cc1ccc(O)cc1)NC(=O)[C@@H](NC(=O)[C@@H]1CCCN1C(=O)[C@H](CCCNC(=N)N)NC(=O)[C@H](CC(N)=O)NC(=O)[C@H](CC(N)=O)NC(=O)[C@H](CCCNC(=O)CNC(=O)[C@H](CO)NC(=O)[C@H](CCCNC(=N)N)NC(=O)[C@H](C)NC(=O)CN)N=C(N(C)C)N(C)C)C(C)C)C(=O)N1CCC[C@H]1C(=O)N[C@@H](CCCNC(=N)N)C(=O)N1CCC[C@H]1C(=O)N[C@@H](CCCNC(=N)N)C(=O)N1CCC[C@H]1C(=O)N1CCC[C@H]1C(=O)N[C@@H](Cc1c[nH]cn1)C(=O)N1CCC[C@H]1C(=O)N[C@@H](CCCNC(=N)N)C(=O)N[C@@H](CC(C)C)C(=O)O [Api 137 (GARSG)] (H-GARSG[δOrn(α-TMG)]NNRPVYIPRPRPPHPRL-OH) | 0.9 µM (≈ 2.45 µg/mL) | 0.5 h | 
2 |  | CC[C@H](C)[C@H](NC(=O)[C@H](Cc1ccc(O)cc1)NC(=O)[C@@H](NC(=O)[C@@H]1CCCN1C(=O)[C@H](CCCNC(=N)N)NC(=O)[C@H](CC(N)=O)NC(=O)[C@H](CC(N)=O)NC(=O)[C@H](CCCNC(=O)CNC(=O)[C@H](CO)NC(=O)[C@H](CCCNC(=N)N)NC(=O)CN)N=C(N(C)C)N(C)C)C(C)C)C(=O)N1CCC[C@H]1C(=O)N[C@@H](CCCNC(=N)N)C(=O)N1CCC[C@H]1C(=O)N[C@@H](CCCNC(=N)N)C(=O)N1CCC[C@H]1C(=O)N1CCC[C@H]1C(=O)N[C@@H](Cc1c[nH]cn1)C(=O)N1CCC[C@H]1C(=O)N[C@@H](CCCNC(=N)N)C(=O)N[C@@H](CC(C)C)C(=O)O [Api 137 (GRSG)] (H-GRSG[δOrn(α-TMG)]NNRPVYIPRPRPPHPRL-OH) | 0.7 µM (≈ 1.85 µg/mL) | 1 h | 
3 |  | CC[C@H](C)[C@H](NC(=O)[C@H](Cc1ccc(O)cc1)NC(=O)[C@@H](NC(=O)[C@@H]1CCCN1C(=O)[C@H](CCCNC(=N)N)NC(=O)[C@H](CC(N)=O)NC(=O)[C@H](CC(N)=O)NC(=O)[C@H](CCCN)N=C(N(C)C)N(C)C)C(C)C)C(=O)N1CCC[C@H]1C(=O)N[C@@H](CCCNC(=N)N)C(=O)N1CCC[C@H]1C(=O)N[C@@H](CCCNC(=N)N)C(=O)N1CCC[C@H]1C(=O)N1CCC[C@H]1C(=O)N[C@@H](Cc1c[nH]cn1)C(=O)N1CCC[C@H]1C(=O)N[C@@H](CCCNC(=N)N)C(=O)N[C@@H](CC(C)C)C(=O)O [Api 137, Guan-ONNRPVYIPRPRPPHPRL-OH, reference compound] ({Orn(α-tetramethylguanidino)}-NNRPVYIPRPRPPHPRL-OH) | 0.46 µM (≈ 1.05 µg/mL) | > 6 h | MIC in TSB/mouse serum [3]: 0.23 µM
4 |  | GKPRPYSPRPTSHPRPIRV [drosocin] |  |  | Time to degradation in mammalian serum [4]: degraded within an hour
5 | R-S | Guan-O(sPEG^750-GARSG)NNRPVYIPRPRPPHPRL-OH |  |  | 
6 |  | Guan-O(sPEG^750-GARSG)NNRPVYIPRPRPPHPRL-OH ({Guan″}-[Orn]NNRPVYIPRPRPPHPRL-OH; not fully specified (residue 1)) [Api 137 (sPEG^750-GARSG)] | 1.1 µM |  | Half-life (t1/2) in 25% serum [5]: 1 h
7 | R-S | Guan-O(sPEG^750-GRSG)NNRPVYIPRPRPPHPRL-OH |  |  | 
8 |  | Guan-O(sPEG^750-GRSG)NNRPVYIPRPRPPHPRL-OH ({Guan″}-[Orn]([Gly-Ser-Arg-Gly-sPEG750])NNRPVYIPRPRPPHPRL-OH) [Api 137 (sPEG^750-GRSG)] |  |  | Half-life (t1/2) in 25% serum [5]: 2 h

Row | Compound | cleaved bond (25% aqueous mouse serum) | MIC in TSB [1] | half-life at 150 µg/ml [2] | further results
9 | Guan-O(GARSG)NNRPVYIPRPRPPHPRL-OH (H-GARSG[δOrn(α-TMG)]NNRPVYIPRPRPPHPRL-OH; SMILES CC[C@H](C)[C@H](NC(=O)[C@H](Cc1ccc(O)cc1)NC(=O)[C@@H](NC(=O)[C@@H]1CCCN1C(=O)[C@H](CCCNC(=N)N)NC(=O)[C@H](CC(N)=O)NC(=O)[C@H](CC(N)=O)NC(=O)[C@H](CCCNC(=O)CNC(=O)[C@H](CO)NC(=O)[C@H](CCCNC(=N)N)NC(=O)[C@H](C)NC(=O)CN)N=C(N(C)C)N(C)C)C(C)C)C(=O)N1CCC[C@H]1C(=O)N[C@@H](CCCNC(=N)N)C(=O)N1CCC[C@H]1C(=O)N[C@@H](CCCNC(=N)N)C(=O)N1CCC[C@H]1C(=O)N1CCC[C@H]1C(=O)N[C@@H](Cc1c[nH]cn1)C(=O)N1CCC[C@H]1C(=O)N[C@@H](CCCNC(=N)N)C(=O)N[C@@H](CC(C)C)C(=O)O) | R-S |  |  | 
